In one series the target is T1, human sEH (Homo sapiens, UniProt P34913).
T1 sequence (P34913 1-555): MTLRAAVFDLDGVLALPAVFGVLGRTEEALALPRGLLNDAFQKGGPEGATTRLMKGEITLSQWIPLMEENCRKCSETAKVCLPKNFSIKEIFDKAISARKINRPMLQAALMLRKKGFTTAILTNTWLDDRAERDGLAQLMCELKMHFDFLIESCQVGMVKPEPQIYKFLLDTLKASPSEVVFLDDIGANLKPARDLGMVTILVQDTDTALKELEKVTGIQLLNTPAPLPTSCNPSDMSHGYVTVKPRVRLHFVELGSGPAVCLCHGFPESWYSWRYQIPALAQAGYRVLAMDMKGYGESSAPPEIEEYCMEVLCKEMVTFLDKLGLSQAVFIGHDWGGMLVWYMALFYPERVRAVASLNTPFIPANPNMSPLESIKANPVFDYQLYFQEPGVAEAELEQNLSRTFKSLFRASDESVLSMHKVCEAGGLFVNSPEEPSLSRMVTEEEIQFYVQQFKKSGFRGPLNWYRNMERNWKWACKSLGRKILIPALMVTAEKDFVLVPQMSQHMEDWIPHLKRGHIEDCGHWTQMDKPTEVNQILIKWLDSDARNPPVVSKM
The series can be described thus: recombinant human sEH inhibition, fluorescent-based substrate. The format is biochemical.

Series [1] addresses T2, FAAH (Homo sapiens, UniProt O00519).
T2 sequence (O00519 1-579): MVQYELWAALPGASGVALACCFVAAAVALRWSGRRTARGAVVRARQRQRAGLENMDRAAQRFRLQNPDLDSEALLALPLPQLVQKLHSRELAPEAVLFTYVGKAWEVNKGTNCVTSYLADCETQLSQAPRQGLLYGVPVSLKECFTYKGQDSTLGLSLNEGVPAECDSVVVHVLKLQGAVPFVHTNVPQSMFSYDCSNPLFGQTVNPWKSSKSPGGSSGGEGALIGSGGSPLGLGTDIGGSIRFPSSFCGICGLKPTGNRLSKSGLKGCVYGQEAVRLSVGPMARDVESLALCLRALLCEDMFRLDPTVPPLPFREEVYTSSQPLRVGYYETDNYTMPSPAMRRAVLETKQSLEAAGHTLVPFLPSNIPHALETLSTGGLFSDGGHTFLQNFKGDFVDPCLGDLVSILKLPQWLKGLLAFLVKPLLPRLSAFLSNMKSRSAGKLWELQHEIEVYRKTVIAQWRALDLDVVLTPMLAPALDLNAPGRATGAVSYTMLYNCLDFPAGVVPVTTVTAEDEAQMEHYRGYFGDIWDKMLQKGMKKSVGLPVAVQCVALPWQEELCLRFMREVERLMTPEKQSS
In words: biochemical.

In series [2] the test system is FAAH. The series can be described thus: block of activity in brain microsomes of the different species tested.
Series [3] has as its target T2, FAAH. Particulars: pre-incubated with FAAH at various time intervals, [S]final = 5 µM.

Results on two molecules are retold here after article PMC5837813 (Bioorganic & medicinal chemistry letters, 2018).

Take `O=C(Nc1cccnc1)N1CCC(Cc2cccc(Oc3ccc(C(F)(F)F)cn3)c2)CC1` [PF-3845, N-(pyridin-3-yl)-4-(3-((5-(trifluoromethyl)pyridin-2-yl)oxy)benzyl)piperidine-1-carboxamide]: the IC50 (as a rule, the concentration that inhibits the measured activity by half) on human sEH was > 10000 nM; against FAAH [1], 0.6 nM. Also, the “activity blocked in the microsomes” value in the series with FAAH [2] is listed as > 80%.

For the molecule `NC(=O)c1cccc(-c2cccc(OC(=O)NC3CCCCC3)c2)c1` [URB597, 3'-carbamoyl-[1-1'-biphenyl]-3-yl cyclohexylcarbamate], the “change of FAAH potency with pre-incubation time (in words)” value on FAAH [3] was “time dependent”.
